Measurements published in publication PMC6648289 (ACS Omega, 2019).

Columns and labels:
Test in all cases: FLIPR membrane potential
Type in all cases: cell-based
Details in all cases: concentration used for PAM testing
[1] = target: T1, human α1β2δ GABAA receptor (Homo sapiens, UniProt O14764+P14867+P47870)
T1 sequence (P14867 28-456): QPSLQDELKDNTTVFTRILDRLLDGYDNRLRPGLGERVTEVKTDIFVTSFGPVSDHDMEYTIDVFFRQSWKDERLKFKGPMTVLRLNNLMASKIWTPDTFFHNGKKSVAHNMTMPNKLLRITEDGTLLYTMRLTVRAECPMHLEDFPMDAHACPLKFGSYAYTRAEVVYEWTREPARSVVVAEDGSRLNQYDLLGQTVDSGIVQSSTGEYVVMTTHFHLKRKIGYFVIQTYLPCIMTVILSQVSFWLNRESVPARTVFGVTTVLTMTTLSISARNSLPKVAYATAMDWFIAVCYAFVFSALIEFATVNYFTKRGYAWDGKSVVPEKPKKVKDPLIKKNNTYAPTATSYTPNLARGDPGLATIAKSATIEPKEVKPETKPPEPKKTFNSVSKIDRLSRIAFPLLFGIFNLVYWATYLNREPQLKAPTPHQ
T1 sequence (P47870 25-512 limits assumed): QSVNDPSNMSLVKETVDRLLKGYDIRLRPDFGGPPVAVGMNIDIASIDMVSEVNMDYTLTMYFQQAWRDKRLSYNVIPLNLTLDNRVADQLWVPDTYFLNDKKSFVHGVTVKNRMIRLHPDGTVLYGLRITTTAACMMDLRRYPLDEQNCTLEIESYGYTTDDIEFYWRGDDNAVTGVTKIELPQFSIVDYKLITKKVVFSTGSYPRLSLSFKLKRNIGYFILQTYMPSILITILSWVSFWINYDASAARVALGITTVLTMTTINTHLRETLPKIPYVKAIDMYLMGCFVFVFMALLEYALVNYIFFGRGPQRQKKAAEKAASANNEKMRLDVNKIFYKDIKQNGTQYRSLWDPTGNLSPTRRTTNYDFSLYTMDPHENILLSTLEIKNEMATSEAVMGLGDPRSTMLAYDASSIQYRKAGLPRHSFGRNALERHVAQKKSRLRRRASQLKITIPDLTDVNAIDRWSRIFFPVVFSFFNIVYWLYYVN
T1 sequence (O14764 17-452 limits assumed): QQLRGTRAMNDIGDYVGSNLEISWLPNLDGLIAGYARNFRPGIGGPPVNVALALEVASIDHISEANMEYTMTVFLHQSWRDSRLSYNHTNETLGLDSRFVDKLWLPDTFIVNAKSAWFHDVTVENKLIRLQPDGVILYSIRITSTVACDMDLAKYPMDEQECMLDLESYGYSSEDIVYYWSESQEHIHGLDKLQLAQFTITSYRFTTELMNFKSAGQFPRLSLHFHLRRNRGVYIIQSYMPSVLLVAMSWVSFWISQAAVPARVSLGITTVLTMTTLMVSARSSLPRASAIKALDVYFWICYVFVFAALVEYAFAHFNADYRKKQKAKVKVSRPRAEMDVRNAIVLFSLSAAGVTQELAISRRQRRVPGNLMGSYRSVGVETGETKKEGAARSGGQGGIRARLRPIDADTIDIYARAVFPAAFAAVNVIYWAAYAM

[2] = target: human α4β2δ GABAA receptor (Homo sapiens, UniProt O14764+P47870+P48169)
[3] = target: human α6β2δ GABAA receptor (Homo sapiens, UniProt O14764+P47870+Q16445)
[4] = target: human α6β2γ2s GABAA receptor (Homo sapiens, UniProt P18507+P47870+Q16445)
human α6β2γ2s GABAA receptor, sequence (Q16445 20-453, one chain of several): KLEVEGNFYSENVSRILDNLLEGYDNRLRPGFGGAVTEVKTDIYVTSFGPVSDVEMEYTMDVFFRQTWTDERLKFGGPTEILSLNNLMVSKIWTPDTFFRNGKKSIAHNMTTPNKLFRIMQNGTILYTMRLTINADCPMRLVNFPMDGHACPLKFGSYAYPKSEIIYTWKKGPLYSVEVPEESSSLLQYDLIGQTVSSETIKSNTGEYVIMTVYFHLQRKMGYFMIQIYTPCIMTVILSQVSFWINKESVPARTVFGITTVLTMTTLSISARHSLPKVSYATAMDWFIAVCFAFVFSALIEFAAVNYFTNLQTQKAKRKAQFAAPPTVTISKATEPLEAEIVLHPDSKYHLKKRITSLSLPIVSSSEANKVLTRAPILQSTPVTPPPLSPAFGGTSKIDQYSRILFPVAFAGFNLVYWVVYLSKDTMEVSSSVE
human α6β2γ2s GABAA receptor, sequence (P18507 40-467 isoform P18507-1 limits assumed, one chain of several): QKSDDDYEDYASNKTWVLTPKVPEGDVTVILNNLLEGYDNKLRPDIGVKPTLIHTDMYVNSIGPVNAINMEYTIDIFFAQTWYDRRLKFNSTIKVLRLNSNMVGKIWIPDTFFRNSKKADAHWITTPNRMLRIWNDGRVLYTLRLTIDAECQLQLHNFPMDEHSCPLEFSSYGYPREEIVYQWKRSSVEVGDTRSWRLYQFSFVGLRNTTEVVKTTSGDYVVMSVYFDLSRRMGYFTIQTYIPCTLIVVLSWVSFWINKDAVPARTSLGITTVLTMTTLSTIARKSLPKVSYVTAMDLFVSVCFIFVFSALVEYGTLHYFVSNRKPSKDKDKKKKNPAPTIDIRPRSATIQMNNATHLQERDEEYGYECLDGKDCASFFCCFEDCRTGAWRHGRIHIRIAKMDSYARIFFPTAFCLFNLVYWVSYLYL

human α6β2δ GABAA receptor, sequence (Q16445 20-453, one chain of several): as the sequence (Q16445 20-453, one chain of several) above
human α4β2δ GABAA receptor, sequence (P48169 36-554, one chain of several): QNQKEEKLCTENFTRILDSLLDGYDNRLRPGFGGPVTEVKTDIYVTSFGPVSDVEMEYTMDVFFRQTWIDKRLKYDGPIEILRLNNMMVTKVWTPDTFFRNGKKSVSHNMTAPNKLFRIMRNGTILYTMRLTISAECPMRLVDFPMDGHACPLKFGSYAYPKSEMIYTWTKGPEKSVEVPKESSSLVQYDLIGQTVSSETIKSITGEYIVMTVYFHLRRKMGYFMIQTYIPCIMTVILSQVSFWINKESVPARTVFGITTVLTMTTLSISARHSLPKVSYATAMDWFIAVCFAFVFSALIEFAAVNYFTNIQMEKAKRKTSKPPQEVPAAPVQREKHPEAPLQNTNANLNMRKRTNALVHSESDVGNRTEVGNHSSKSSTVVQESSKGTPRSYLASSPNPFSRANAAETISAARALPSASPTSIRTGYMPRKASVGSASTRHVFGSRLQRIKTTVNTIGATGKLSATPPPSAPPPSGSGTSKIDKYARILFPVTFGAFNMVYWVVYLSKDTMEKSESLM

GABA EC20 [1]: 1600 to 2000 nM | GABA EC20 [2]: 80 nM | GABA EC20 [3]: 50 nM | GABA EC20 [4]: 100 to 200 nM
SMILES: NCCCC(=O)O [GABA, γ-Aminobutyric acid]
